Laboratory results: the Kinase Knowledgebase extract (Sharma et al. 2016)

Molecular target: CDK2 (human) (UniProt P24941)
Experiment: Enzyme Assay

| SMILES | Ki [nM] |
| --- | --- |
| CC(C)c1cc2[nH][nH]c(=O)c2cc1-c1nc(Nc2n[nH]c3ccccc23)c2ccccc2n1 | < 1000 |
| COC(=O)c1cc(Nc2cc(C)[nH]n2)nc(Sc2ccc3c(=O)[nH][nH]c3c2)n1 | < 1000 |
| CN(C)CCCOc1cc(Nc2cc(C3CC3)[nH]n2)nc(Sc2ccc3c(=O)[nH][nH]c3c2)n1 | < 1000 |
| O=c1[nH][nH]c2cc(Oc3cccc(Nc4n[nH]c5ccccc45)n3)ccc12 | < 1000 |
| CCc1c(-c2nc(Nc3cc(C)[nH]n3)c3ccccc3n2)ccc2[nH][nH]c(=O)c12 | < 1000 |
| O=c1[nH][nH]c2cc(Nc3nc(Nc4n[nH]c5cccc(F)c45)c4ccccc4n3)ccc12 | < 1000 |
| COc1ccc(-c2cc(Nc3cc(C)[nH]n3)nc(Sc3ccc4c(=O)[nH][nH]c4c3)n2)cc1 | < 1000 |
| Cc1cccc2c(Nc3cc(-c4ccccc4)[nH]n3)nc(-c3ccc4[nH][nH]c(=O)c4c3OC(F)(F)F)nc12 | < 1000 |
| O=c1[nH][nH]c2ccc(-c3cc(Nc4n[nH]c5cccnc45)c4ccccc4n3)cc12 | < 1000 |
| Cc1cnc(NCCC(Cc2ccccc2)Cc2ccc3c(=O)[nH][nH]c3c2)s1 (stereo not drawn) | < 1000 |
| Cc1cc(Nc2cc(-c3ccco3)[nH]n2)nc(COc2ccc3c(=O)[nH][nH]c3c2)n1 | < 1000 |
| Cc1cc(Nc2cc(CN(C)C)nc(Sc3ccc4c(=O)[nH][nH]c4c3)n2)n[nH]1 | < 1000 |
| O=c1[nH][nH]c2ccc(-c3nc(Nc4n[nH]c5ccccc45)c4ccccc4n3)c([N+](=O)[O-])c12 | < 1000 |
| O=c1[nH][nH]c2cc(Sc3nc(Nc4cc[nH]n4)c4ccccc4n3)ccc12 | < 1000 |
| O=c1[nH][nH]c2cc(CCCC(Nc3cc(C4CC4)[nH]n3)c3ccccc3)ccc12 (stereo not drawn) | < 1000 |
| O=c1[nH][nH]c2cc(C(F)(F)F)c(-c3cc(Nc4n[nH]c5ccccc45)cc(-c4ccccc4)n3)cc12 | < 1000 |
| CCc1cc(Nc2cc(C)[nH]n2)nc(COc2ccc3[nH][nH]c(=O)c3c2)n1 | < 1000 |
| O=c1[nH][nH]c2cc(C3CC3)c(-c3nc(Nc4n[nH]c5c(F)cc(F)cc45)c4ccccc4n3)cc12 | < 1000 |
| Cc1cc(Nc2nc(Sc3ccc4c(=O)[nH][nH]c4c3)nc3cc(OCCCN(C)C)ccc23)n[nH]1 | < 1000 |
| O=c1[nH][nH]c2cc(Cl)c(-c3cc(C4CCCCC4)nc(Nc4n[nH]c5ccccc45)n3)cc12 | < 1000 |
| CC(=O)Nc1cccc(-c2cc(Nc3cc(C)[nH]n3)nc(Oc3ccc4c(=O)[nH][nH]c4c3)n2)c1 | < 1000 |
| Cc1cc(Nc2nc(Oc3ccc4c(=O)[nH][nH]c4c3)cc3ccccc23)n[nH]1 | < 1000 |
| Cc1cc(Nc2nc(CSc3ccc4[nH][nH]c(=O)c4c3)nc3ccccc23)n[nH]1 | < 1000 |
| Cc1cnc(NC(=O)CC(=O)Cc2ccc3c(=O)[nH][nH]c3c2)s1 | < 1000 |
| O=c1[nH][nH]c2ccc(-c3nc(Nc4cc(-c5ccccc5)[nH]n4)c4ccccc4n3)c(C(F)(F)F)c12 | < 1000 |

| SMILES | Ki [nM] |
| --- | --- |
| Cc1cc(Nc2nc(-c3cc4c(=O)[nH][nH]c4cc3C(F)(F)F)nc3cnoc23)n[nH]1 | < 1000 |
| Cc1cnc(NC(=O)CC(=O)Oc2ccc3c(=O)[nH][nH]c3c2)s1 | < 1000 |
| O=c1[nH][nH]c2cc(Cl)c(-c3cc(Nc4n[nH]c5ccccc45)c4c(n3)CCCC4)cc12 | < 1000 |
| O=c1[nH][nH]c2ccc(-c3nc4c(c(Nc5n[nH]c(-c6cccnc6)n5)n3)CCCC4)c(C(F)(F)F)c12 | < 1000 |
| O=c1[nH][nH]c2ccc(OCc3nc(Nc4cc(C5CC5)[nH]n4)c4ccccc4n3)cc12 | < 1000 |
| Cc1cnc(NCCCSc2ccc3c(=O)[nH][nH]c3c2)s1 | < 1000 |
| O=c1[nH][nH]c2ccc(-c3nc4c(c(Nc5n[nH]c6ccc(F)cc56)n3)CCNC4)c(C(F)(F)F)c12 | < 1000 |
| Cc1cc(Nc2nc(-c3ccc4[nH][nH]c(=O)c4c3Cl)nc(C)c2C)n[nH]1 | < 1000 |
| Cc1cc(Nc2nc(Sc3ccc4c(=O)[nH][nH]c4c3)nc3cc([N+](=O)[O-])ccc23)n[nH]1 | < 1000 |
| O=c1[nH][nH]c2ccc(-c3nc(Nc4n[nH]c5ccccc45)cc(-c4ccccc4)n3)c(C(F)(F)F)c12 | < 1000 |
| Cc1cc(Nc2cc(C)[nH]n2)nc(C(C)(C)c2ccc3c(=O)[nH][nH]c3c2)n1 | < 1000 |
| O=c1[nH][nH]c2cc(NC(CCNc3ccccn3)Cc3ccccc3)ccc12 (stereo not drawn) | < 1000 |
| Cc1cc(Nc2nc(Sc3ccc4c(=O)[nH][nH]c4c3)nc3cc(NO)ccc23)n[nH]1 | < 1000 |
| O=c1[nH][nH]c2cc([C@@H]3C[C@H]3c3nc(Nc4n[nH]c5c(F)cccc45)c4ccccc4n3)ccc12 | < 1000 |
| O=C(NC1CCCCC1)c1cc(Nc2nc(-c3ccc4[nH][nH]c(=O)c4c3)nc3ccccc23)n[nH]1 | < 1000 |
| O=c1[nH][nH]c2ccc(-c3nnc(C4CCNCC4)c(Nc4n[nH]c5ccccc45)n3)c(C(F)(F)F)c12 | < 1000 |
| Cc1cc(Nc2nc(Sc3ccc4c(=O)[nH][nH]c4c3)nc3ccccc23)n[nH]1 | < 1000 |
| O=c1[nH][nH]c2ccc(-c3nc(Nc4cc(C5CC5)[nH]n4)nc(-c4ccccc4)n3)cc12 | < 1000 |
| Cc1cnc(NC(=O)CCSc2ccc3c(=O)[nH][nH]c3c2)s1 | < 1000 |
| Cc1cc(Nc2nc(COc3ccc4[nH][nH]c(=O)c4c3)nc3c2CCCC3)n[nH]1 | < 1000 |
| NCCc1cc(Nc2n[nH]c3ccccc23)nc(-c2ccc3[nH][nH]c(=O)c3c2C(F)(F)F)n1 | < 1000 |
| Cc1cc(Nc2nc(Oc3ccc4c(=O)[nH][nH]c4c3)nc3ccccc23)n[nH]1 | < 1000 |
| O=C1CCc2c(nc(-c3ccc4[nH][nH]c(=O)c4c3)nc2Nc2n[nH]c3ccccc23)C1 | < 1000 |
| O=c1[nH][nH]c2cc(Nc3nc(Nc4ccc5c(=O)[nH][nH]c5c4)c4ccccc4n3)ccc12 | < 1000 |

Further lines, results first:

| Ki [nM] | SMILES |
| --- | --- |
| < 1000 | O=C(CCSc1ccc2c(=O)[nH][nH]c2c1)Nc1ccccn1 |
| < 1000 | O=c1[nH][nH]c2ccc(C3CCCC(Nc4ccccn4)C3)cc12 (stereo not drawn) |
| < 1000 | O=C(CC(=O)Oc1ccc2c(=O)[nH][nH]c2c1)Nc1nccnn1 |
| < 1000 | O=c1[nH][nH]c2cc(OCCCNc3cc(C4CC4)[nH]n3)ccc12 |
| < 1000 | O=c1[nH][nH]c2cc(Nc3nc(Nc4cc(C5CC5)[nH]n4)c4cc(Cl)ccc4n3)ccc12 |
| < 1000 | Cc1ccc2nc(Nc3ccc4c(=O)[nH][nH]c4c3)nc(Nc3cc(C)[nH]n3)c2n1 |
| < 1000 | O=c1[nH][nH]c2cc(Sc3cc(Nc4cc(C5CC5)[nH]n4)ccn3)ccc12 |
| < 1000 | O=C(CCNc1ccc2c(=O)[nH][nH]c2c1)Nc1cc(C2CC2)[nH]n1 |
| < 1000 | O=c1[nH][nH]c2cc(Nc3nc(Nc4cc(C5CC5)[nH]n4)c4cc(N5CCOCC5)ccc4n3)ccc12 |
| < 1000 | O=c1[nH][nH]c2cc(Nc3cccc(Nc4cc(C5CC5)[nH]n4)n3)ccc12 |
| < 1000 | O=c1[nH][nH]c2cc(SCCONc3cc(C4CC4)[nH]n3)ccc12 |
| < 1000 | Cn1cnc(NC2COCC(SCc3ccc4c(=O)[nH][nH]c4c3)C2)c1 (stereo not drawn) |
| < 1000 | CCc1cc(Nc2nc(Nc3ccc4c(=O)[nH][nH]c4c3)nc3ccccc23)n[nH]1 |
| < 1000 | Cn1cnc(NC2CCCC(C(C)(C)c3ccc4c(=O)[nH][nH]c4c3)C2)c1 (stereo not drawn) |
| < 1000 | Cn1cnc(NCCCCc2ccc3c(=O)[nH][nH]c3c2)c1 |
| < 1000 | Cc1cnc(NC2CCC(Cc3ccc4c(=O)[nH][nH]c4c3)C2)s1 (stereo not drawn) |
| < 1000 | O=c1[nH][nH]c2cc(SC3COCC(Nc4ccccn4)C3)ccc12 (stereo not drawn) |
| < 1000 | O=C(CCNc1ccccn1)Cc1ccc2c(=O)[nH][nH]c2c1 |
| < 1000 | O=c1[nH][nH]c2cc(CCCCNc3ccccn3)ccc12 |
| < 1000 | Cn1cnc(NC(=O)CCNc2ccc3c(=O)[nH][nH]c3c2)c1 |
| < 1000 | O=c1[nH][nH]c2cc(Nc3ncc(N4CCOCC4)c(Nc4cc(C5CC5)[nH]n4)n3)ccc12 |
| < 1000 | O=c1[nH][nH]c2cc(SC3CCCC(Nc4ccccn4)C3)ccc12 (stereo not drawn) |
| < 1000 | O=C(CCSc1ccc2c(=O)[nH][nH]c2c1)Nc1cc(C2CC2)[nH]n1 |
| < 1000 | O=c1[nH][nH]c2ccc(CNc3cc(Nc4cc(C5CC5)[nH]n4)ccn3)cc12 |
| < 1000 | O=c1[nH][nH]c2cc(Nc3nc(Nc4cc(C5CC5)[nH]n4)cc(-c4ccccc4)n3)ccc12 |

| Ki [nM] | SMILES |
| --- | --- |
| < 1000 | Cn1cnc(NC2CCCC2CCc2ccc3c(=O)[nH][nH]c3c2)c1 (stereo not drawn) |
| < 1000 | O=C(CC(=O)Oc1ccc2c(=O)[nH][nH]c2c1)Nc1ccccn1 |
| < 1000 | Cc1cnc(NC2CCCC(Nc3ccc4c(=O)[nH][nH]c4c3)C2)s1 (stereo not drawn) |
| < 1000 | CCCCc1cc(Nc2nncc(-c3ccc4[nH][nH]c(=O)c4c3)n2)n[nH]1 |
| < 1000 | O=c1[nH][nH]c2cc(Nc3nc(Nc4cc(C5CC5)[nH]n4)ccc3[N+](=O)[O-])ccc12 |
| < 1000 | Cc1cc(Nc2cccc(NCc3ccc4c(=O)[nH][nH]c4c3)n2)n[nH]1 |
| < 1000 | O=c1[nH][nH]c2cc(NCCCNc3ccccn3)ccc12 |
| < 1000 | Cn1cnc(NC2CCCC(Nc3ccc4c(=O)[nH][nH]c4c3)C2)c1 (stereo not drawn) |
| < 1000 | O=c1[nH][nH]c2cc(Nc3nc(Nc4cc(C5CCC5)[nH]n4)c4ccccc4n3)ccc12 |
| < 1000 | O=c1[nH][nH]c2cc(OC3CCC(Nc4ccccn4)C3)ccc12 (stereo not drawn) |
| < 1000 | Cc1nc(Nc2ccc3c(=O)[nH][nH]c3c2)nc(Nc2cc(C3CC3)[nH]n2)n1 |
| < 1000 | O=C(CCNc1ccc2c(=O)[nH][nH]c2c1)Nc1nccnn1 |
| < 1000 | O=c1[nH][nH]c2cc(OC3CCCC(Nc4nccnn4)C3)ccc12 (stereo not drawn) |
| < 1000 | Cc1cnc(NC2COCC(Oc3ccc4c(=O)[nH][nH]c4c3)C2)s1 (stereo not drawn) |
| < 1000 | O=c1[nH][nH]c2cc(COC3CCCC3Nc3cc(C4CC4)[nH]n3)ccc12 (stereo not drawn) |
| < 1000 | O=c1[nH][nH]c2cc(Nc3nc(Nc4cc(C5CC5)[nH]n4)c4cc(-c5ccccc5)ccc4n3)ccc12 |
| < 1000 | O=c1[nH][nH]c2cc(SC3COCC(Nc4cc(C5CC5)[nH]n4)C3)ccc12 (stereo not drawn) |
| < 1000 | Cn1cnc(NC2CCCC2COc2ccc3c(=O)[nH][nH]c3c2)c1 (stereo not drawn) |
| < 1000 | O=c1[nH][nH]c2cc(SC3CCC(Nc4cc(C5CC5)[nH]n4)C3)ccc12 (stereo not drawn) |
| < 1000 | O=c1[nH][nH]c2cc(NC3COCC(Nc4cc(C5CC5)[nH]n4)C3)ccc12 (stereo not drawn) |
| < 1000 | O=C(CCCc1ccc2c(=O)[nH][nH]c2c1)Nc1ccccn1 |
| < 1000 | O=C(CC(=O)Nc1ccccn1)Cc1ccc2c(=O)[nH][nH]c2c1 |
| < 1000 | O=C(CCNc1nccnn1)Nc1ccc2c(=O)[nH][nH]c2c1 |
| < 1000 | O=c1[nH][nH]c2cc(NC3CCC(Nc4nccnn4)C3)ccc12 (stereo not drawn) |
